“And” between values parts separate entries of the source, which are not always exact repeats. Equal values may be shown once. Inconclusive results and toxic doses are left out. Rule as the data show it: active = T/C of 150% or more; inactive = T/C below 125%.
Test system: L1210 leukemia ip in BDF1 mice, survival T/C
Assay: NCI In Vivo Anticancer Drug Screen. Data for tumor model L1210 Leukemia (intraperitoneal) in B6D2F1 (BDF1) mice
Conditions: endpoint: mean survival time, higher = longer survival
How it was run: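 Transplanted-tumor mice were given test agent; controls received vehicle only. Survival readings from the two groups were divided (treated over control).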

[1] = dose: 100.0 mg/kg/injection, schedule: Q01DX001 (ip), vehicle: saline
[2] = dose: 200.0 mg/kg/injection, schedule: Q01DX001 (ip), vehicle: saline
[3] = dose: 400.0 mg/kg/injection, schedule: Q01DX001 (ip), vehicle: saline
[4] = dose: 6.25 mg/kg/injection, schedule: Q01DX009 (ip), vehicle: saline
[5] = dose: 12.5 mg/kg/injection, schedule: Q01DX009 (ip), vehicle: saline
[6] = dose: 25.0 mg/kg/injection, schedule: Q01DX009 (ip), vehicle: saline
[7] = dose: 25.0 mg/kg/injection, schedule: Q04DX003 (ip), vehicle: saline
[8] = dose: 50.0 mg/kg/injection, schedule: Q04DX003 (ip), vehicle: saline
[9] = dose: 100.0 mg/kg/injection, schedule: Q01DX001 (ip), vehicle: carboxymethylcellulose (CMC)
[10] = dose: 100.0 mg/kg/injection, schedule: Q04DX003 (ip), vehicle: carboxymethylcellulose (CMC)
[11] = dose: 200.0 mg/kg/injection, schedule: Q04DX003 (ip), vehicle: carboxymethylcellulose (CMC)
[12] = dose: 400.0 mg/kg/injection, schedule: Q04DX003 (ip), vehicle: carboxymethylcellulose (CMC)
[13] = dose: 100.0 mg/kg/injection, schedule: Q04DX003 (ip), vehicle: saline with Tween-80
[14] = dose: 200.0 mg/kg/injection, schedule: Q04DX003 (ip), vehicle: saline with Tween-80
[15] = dose: 12.5 mg/kg/injection, schedule: Q04DX003 (ip), vehicle: Klucel (hydroxypropylcellulose) (HPC)
[16] = dose: 25.0 mg/kg/injection, schedule: Q04DX003 (ip), vehicle: Klucel (hydroxypropylcellulose) (HPC)
[17] = dose: 50.0 mg/kg/injection, schedule: Q04DX003 (ip), vehicle: Klucel (hydroxypropylcellulose) (HPC)

Measured: T/C

NC(N)=NC(N)=Nc1ccc2c(Cl)c(Cl)ccc2c1
inactive: dose: 2.5 mg/kg/injection, schedule: Q01DX009 (ip), vehicle: saline sonified 92 % of control | dose: 5.0 mg/kg/injection, schedule: Q01DX009 (ip), vehicle: saline sonified 101 % of control | dose: 10.0 mg/kg/injection, schedule: Q01DX009 (ip), vehicle: saline sonified 101 % of control | dose: 12.5 mg/kg/injection, schedule: Q04DX003 (ip), vehicle: saline with Tween-80 105 % of control | dose: 25.0 mg/kg/injection, schedule: Q04DX003 (ip), vehicle: saline with Tween-80 114 % of control | dose: 50.0 mg/kg/injection, schedule: Q04DX003 (ip), vehicle: saline with Tween-80 100 % of control | dose: 100.0 mg/kg/injection, schedule: Q04DX003 (ip), vehicle: saline sonified 101 % of control

OC1C(SCc2ccccc2)OCC2OC3(CCCCC3)OC21 (centres undefined)
inactive: [1] 100 % of control | [2] 102 % of control | [3] 104 % of control

CC1CC(C)(C)OB(OC(C)CC(C)(C)OB2OC(C)CC(C)(C)O2)O1 (centres undefined)
inactive: dose: 50.0 mg/kg/injection, schedule: Q01DX001 (ip), vehicle: saline 102 % of control | [1] 107 % of control | [2] 96 % of control | [3] 107 % of control

NCC1CCCCC1
inactive: [4] 107 % of control | dose: 12.0 mg/kg/injection, schedule: Q04DX003 (ip), vehicle: saline 98 % of control | [5] 105 % of control | [6] 100 % of control | [7] 110 % of control | dose: 50.0 mg/kg/injection, schedule: Q01DX009 (ip), vehicle: saline 88 % of control | [8] 104 % of control

CC12CCC(/C(=N/O)C1=O)C2(C)C (centres undefined)
inactive: dose: 100.0 mg/kg/injection, schedule: Q04DX002 (ip), vehicle: Klucel (hydroxypropylcellulose) (HPC) 106 % of control | dose: 200.0 mg/kg/injection, schedule: Q04DX002 (ip), vehicle: Klucel (hydroxypropylcellulose) (HPC) 110 % of control | dose: 400.0 mg/kg/injection, schedule: Q04DX002 (ip), vehicle: Klucel (hydroxypropylcellulose) (HPC) 103 % of control

CCCCCCCCCCCCCC(=O)N(CC)CC
inactive: [9] 104 % of control | dose: 100.0 mg/kg/injection, schedule: Q01DX009 (ip), vehicle: carboxymethylcellulose (CMC) 95 % of control and 100 % of control | [10] 98 % of control | dose: 200.0 mg/kg/injection, schedule: Q01DX001 (ip), vehicle: carboxymethylcellulose (CMC) 94 % of control | dose: 200.0 mg/kg/injection, schedule: Q01DX009 (ip), vehicle: carboxymethylcellulose (CMC) 101 % of control and 107 % of control | [11] 92 % of control | dose: 400.0 mg/kg/injection, schedule: Q01DX001 (ip), vehicle: carboxymethylcellulose (CMC) 96 % of control | [12] 103 % of control

CS(=O)(=O)Nc1nc2ccccc2s1
inactive: [10] 98 % of control | [11] 98 % of control | [12] 97 % of control

O=C(Cc1ccc([N+](=O)[O-])cc1)Nc1cccc(O)c1
inactive: dose: 100.0 mg/kg/injection, schedule: Q04DX003 (ip), vehicle: Klucel (hydroxypropylcellulose) (HPC) 97 % of control | dose: 200.0 mg/kg/injection, schedule: Q04DX003 (ip), vehicle: Klucel (hydroxypropylcellulose) (HPC) 108 % of control | dose: 400.0 mg/kg/injection, schedule: Q04DX003 (ip), vehicle: Klucel (hydroxypropylcellulose) (HPC) 101 % of control

OCC1OC([Se][Se]C2OC(CO)C(O)C(O)C2O)C(O)C(O)C1O (centres undefined)
inactive: [4] 99 % of control | [5] 100 % of control | [6] 100 % of control | dose: 100.0 mg/kg/injection, schedule: Q04DX002 (ip), vehicle: saline 105 % of control

CCOC(=O)CCN(CC(=O)OCC)C(C)C
inactive: dose: 100.0 mg/kg/injection, schedule: Q01DX009 (ip), vehicle: saline with Tween-80 100 % of control | [13] 100 % of control | dose: 200.0 mg/kg/injection, schedule: Q01DX009 (ip), vehicle: saline with Tween-80 106 % of control | [14] 95 % of control | dose: 400.0 mg/kg/injection, schedule: Q01DX009 (ip), vehicle: saline with Tween-80 110 % of control | dose: 400.0 mg/kg/injection, schedule: Q04DX003 (ip), vehicle: saline with Tween-80 103 % of control

CCC(=O)c1ccc2c(c1)N(CCCN1CCN(CCO)CC1)c1ccccc1S2
inactive: dose: 1.56 mg/kg/injection, schedule: Q03HX024 (ip), vehicle: saline 114 % of control | dose: 3.12 mg/kg/injection, schedule: Q03HX024 (ip), vehicle: saline 101 % of control | dose: 4.0 mg/kg/injection, schedule: Q01DX009 (ip), vehicle: saline 101 % of control | [4] 104 % of control | dose: 6.25 mg/kg/injection, schedule: Q03HX024 (ip), vehicle: saline 110 % of control | dose: 6.25 mg/kg/injection, schedule: Q04DX003 (ip), vehicle: saline 113 % of control | dose: 8.0 mg/kg/injection, schedule: Q01DX009 (ip), vehicle: saline 105 % of control | dose: 12.5 mg/kg/injection, schedule: Q04DX003 (ip), vehicle: saline 93 % of control | dose: 18.75 mg/kg/injection, schedule: Q01DX001 (ip), vehicle: saline 110 % of control | [7] 98 % of control | dose: 32.0 mg/kg/injection, schedule: Q01DX009 (ip), vehicle: saline 90 % of control | dose: 37.5 mg/kg/injection, schedule: Q01DX001 (ip), vehicle: saline 103 % of control | [8] 95 % of control | dose: 75.0 mg/kg/injection, schedule: Q01DX001 (ip), vehicle: saline 119 % of control | dose: 100.0 mg/kg/injection, schedule: Q04DX003 (ip), vehicle: saline 115 % of control

O=[N+]([O-])c1cc(S(=O)(=O)OCC2CO2)ccc1Cl (centres undefined)
inactive: dose: 6.25 mg/kg/injection, schedule: Q04DX003 (ip), vehicle: Klucel (hydroxypropylcellulose) (HPC) 98 % of control | dose: 12.5 mg/kg/injection, schedule: Q01DX009 (ip), vehicle: Klucel (hydroxypropylcellulose) (HPC) 96 % of control | [15] 98 % of control | dose: 25.0 mg/kg/injection, schedule: Q01DX009 (ip), vehicle: Klucel (hydroxypropylcellulose) (HPC) 90 % of control | [16] 101 % of control | [17] 103 % of control

CN(CCNC(=O)c1ccccc1C(=O)O)c1ccccc1
inactive: dose: 100.0 mg/kg/injection, schedule: Q04DX002 (ip), vehicle: saline with Tween-80 100 % of control | dose: 200.0 mg/kg/injection, schedule: Q04DX002 (ip), vehicle: saline with Tween-80 95 % of control

Cc1c(-c2ccccc2)oc2c(C(=O)OCCN3CCCCC3)cccc2c1=O
inactive: [1] 102 % of control | [2] 102 % of control | [3] 96 % of control

N#CC(C#N)=Cc1cccnc1
inactive: [15] 98 % of control | [16] 100 % of control | dose: 50.0 mg/kg/injection, schedule: Q01DX001 (ip), vehicle: carboxymethylcellulose (CMC) 101 % of control | [17] 93 % of control and 104 % of control | [9] 98 % of control

COc1cc(C)c(O)c(C[P+](c2ccccc2)(c2ccccc2)c2ccccc2)c1
inactive: [13] 91 % of control | [14] 94 % of control

Clc1ccccc1/C=N\N=C(N/N=C\c1ccccc1Cl)N/N=C/c1ccccc1Cl
inactive: dose: 15.0 mg/kg/injection, schedule: Q01DX Z (ip), vehicle: carboxymethylcellulose (CMC) 103 % of control | dose: 30.0 mg/kg/injection, schedule: Q01DX Z (ip), vehicle: carboxymethylcellulose (CMC) 97 % of control | dose: 60.0 mg/kg/injection, schedule: Q01DX Z (ip), vehicle: carboxymethylcellulose (CMC) 98 % of control | dose: 120.0 mg/kg/injection, schedule: Q01DX Z (ip), vehicle: carboxymethylcellulose (CMC) 97 % of control | dose: 150.0 mg/kg/injection, schedule: Q01DX Z (oral), vehicle: carboxymethylcellulose (CMC) 101 % of control | dose: 300.0 mg/kg/injection, schedule: Q01DX Z (oral), vehicle: carboxymethylcellulose (CMC) 101 % of control | dose: 600.0 mg/kg/injection, schedule: Q01DX Z (oral), vehicle: carboxymethylcellulose (CMC) 101 % of control | dose: 1200.0 mg/kg/injection, schedule: Q01DX Z (oral), vehicle: carboxymethylcellulose (CMC) 100 % of control
